Results taken from patent US7183075B2, “Purified and isolated potassium-chloride cotransporter nucleic acids and polypeptides and therapeutic and screening methods using same” (Vanderbilt University, priority 2000, dated 2007).

How the values were obtained:
rat KCC2 = biological target: T1, rat KCC2 (Rattus norvegicus, UniProt Q63633); details: rat KCC2 in HEK293 cells; read-out: chloride affinity (Km) reported for rKCC2; cited from earlier work
T1 construct: host or cells: HEK293 cells
T1 sequence (Q63633 1-1116 isoform Q63633-2): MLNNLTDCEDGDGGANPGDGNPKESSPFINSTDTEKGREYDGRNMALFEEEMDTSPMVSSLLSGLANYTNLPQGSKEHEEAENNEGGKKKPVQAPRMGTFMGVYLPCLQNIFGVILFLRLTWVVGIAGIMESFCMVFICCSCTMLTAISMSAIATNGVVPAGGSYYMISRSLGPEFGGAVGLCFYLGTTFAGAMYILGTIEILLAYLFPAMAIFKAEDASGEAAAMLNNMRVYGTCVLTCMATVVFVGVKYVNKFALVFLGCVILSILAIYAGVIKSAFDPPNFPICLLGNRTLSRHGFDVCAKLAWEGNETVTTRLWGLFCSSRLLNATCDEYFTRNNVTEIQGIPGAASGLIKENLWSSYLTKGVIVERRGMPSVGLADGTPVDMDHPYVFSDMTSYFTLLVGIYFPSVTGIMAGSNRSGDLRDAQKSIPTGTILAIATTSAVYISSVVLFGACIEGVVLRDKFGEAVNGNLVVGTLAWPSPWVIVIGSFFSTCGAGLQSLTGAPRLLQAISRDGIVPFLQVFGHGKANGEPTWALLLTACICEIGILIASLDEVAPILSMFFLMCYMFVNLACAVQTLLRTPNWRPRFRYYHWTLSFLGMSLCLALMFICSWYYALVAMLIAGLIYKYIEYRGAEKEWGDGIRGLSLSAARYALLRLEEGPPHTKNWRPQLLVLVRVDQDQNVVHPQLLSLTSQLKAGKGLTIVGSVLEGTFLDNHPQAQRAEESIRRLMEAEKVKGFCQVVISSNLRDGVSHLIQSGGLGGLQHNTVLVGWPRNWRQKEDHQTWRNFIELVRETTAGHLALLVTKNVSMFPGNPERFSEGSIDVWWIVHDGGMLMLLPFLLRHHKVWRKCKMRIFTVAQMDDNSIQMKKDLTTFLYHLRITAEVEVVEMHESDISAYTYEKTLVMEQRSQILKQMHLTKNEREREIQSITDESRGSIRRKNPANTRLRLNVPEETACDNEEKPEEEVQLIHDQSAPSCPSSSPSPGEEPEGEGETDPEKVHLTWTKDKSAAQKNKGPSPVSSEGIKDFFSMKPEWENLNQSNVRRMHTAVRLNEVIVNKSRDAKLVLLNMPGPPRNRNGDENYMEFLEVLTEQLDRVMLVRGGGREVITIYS

[1] = tested on: Na^+—K^+-2Cl^− cotransport activity of Xenopus oocytes; assay: Endogenous Na+-K+-2Cl- cotransport activity of Xenopus oocytes; type: cell-based; details: 100 μM DIOA
Description: The sensitivity of the KCCs to other inhibitors of red cell K^+—Cl^− cotransport was also assessed in oocytes injected with KCC4 or KCC1. FIG. 18 illustrates the effect of 100 μM DIDS and 100 μM DIOA on the ^86Rb^+ uptake induced by the microinjection of each KCC cRNA. The effect of extracellular K^+ concentration on the inhibition of cotransport was very dramatic for DIDS. […] However, inhibition of KCC4 was higher when extracellular K^+ was lower, although this was not the case for KCC1. DIOA is reportedly specific for K^+—Cl^− cotransport over Na^+—K^+-2Cl^− cotransport (Garay et al. (1988) Mol Pharmacol 33:696–701), and the same concentration of DIOA had no effect on the function of the Na^+—K^+-2Cl^− cotransport activity of Xenopus oocytes (Gamba et al. (1994) J Biol Chem 269: 17713–17722).

hKCC3b = biological target: T2, hKCC3b (Homo sapiens, UniProt Q9UHW9); type: cell-based; details: 2 mM furosemide; 100 nM calyculin A
T2 construct: expressed in transfected cells; host or cells: Xenopus oocytes microinjected with KCC3b cRNA
T2 sequence (Q9UHW9 1-1099 isoform Q9UHW9-2): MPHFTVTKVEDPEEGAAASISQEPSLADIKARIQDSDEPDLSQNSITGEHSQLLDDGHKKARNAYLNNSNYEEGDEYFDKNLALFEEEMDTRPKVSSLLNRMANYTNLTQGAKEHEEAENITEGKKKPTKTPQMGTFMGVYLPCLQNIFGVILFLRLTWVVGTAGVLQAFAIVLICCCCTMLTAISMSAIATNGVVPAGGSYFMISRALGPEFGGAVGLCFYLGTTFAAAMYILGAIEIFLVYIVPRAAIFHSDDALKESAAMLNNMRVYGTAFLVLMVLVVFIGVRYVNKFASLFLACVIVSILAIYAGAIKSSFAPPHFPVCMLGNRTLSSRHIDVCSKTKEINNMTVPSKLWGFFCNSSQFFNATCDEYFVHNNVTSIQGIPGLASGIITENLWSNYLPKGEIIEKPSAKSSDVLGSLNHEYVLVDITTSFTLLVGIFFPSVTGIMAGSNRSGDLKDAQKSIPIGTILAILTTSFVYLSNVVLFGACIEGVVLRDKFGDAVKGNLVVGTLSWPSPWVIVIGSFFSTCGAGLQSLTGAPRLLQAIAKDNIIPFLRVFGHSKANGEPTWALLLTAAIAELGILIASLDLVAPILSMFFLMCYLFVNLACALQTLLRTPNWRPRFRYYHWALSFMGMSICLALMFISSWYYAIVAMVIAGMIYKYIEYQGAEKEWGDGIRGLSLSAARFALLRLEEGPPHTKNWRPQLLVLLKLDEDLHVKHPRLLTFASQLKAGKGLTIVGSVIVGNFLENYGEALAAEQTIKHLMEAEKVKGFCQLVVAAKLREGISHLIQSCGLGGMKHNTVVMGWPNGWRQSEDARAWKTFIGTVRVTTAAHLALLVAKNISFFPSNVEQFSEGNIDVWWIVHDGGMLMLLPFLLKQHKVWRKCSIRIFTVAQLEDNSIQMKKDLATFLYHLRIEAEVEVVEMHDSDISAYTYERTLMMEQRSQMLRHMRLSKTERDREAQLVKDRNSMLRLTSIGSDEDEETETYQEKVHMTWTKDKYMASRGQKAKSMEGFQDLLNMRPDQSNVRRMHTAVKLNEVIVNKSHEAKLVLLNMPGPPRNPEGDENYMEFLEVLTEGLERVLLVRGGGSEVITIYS
Description: Open bars, uptake assays performed in a control medium containing 10 mM K^+and 50 mM Cl^−; hatched bars, uptake assays performed in medium lacking Cl^−; bars with horizontal stripes, uptake assays performed in the presence of 100 nM calyculin A; black bars, uptake assays performed in the presence of okadaic acid; gray bars, uptake assays performed in the presence of cypermetrin.

## Cl [Chloride]
Rat KCC2
  Km: > 50 mM

## CCCCC1(C2CCCC2)Cc2cc(OCC(=O)O)c(Cl)c(Cl)c2C1=O (stereo not drawn) [DIOA]
[1]
  effect on Na+-K+-2Cl- cotransport activity of Xenopus oocytes: no effect

## COC[C@@H]([C@H](O)[C@H](O)C(=O)NCC[C@H](C)c1nc(/C=C/C[C@@H]2O[C@]3(C[C@@H](O)[C@@H]2C)O[C@H]([C@H](C[C@H](O)[C@H](C)[C@H](O)[C@H](C)/C=C(C)/C(C)=C/C=C/C(C)=C\C#N)OC)[C@H](OP(=O)(O)O)C3(C)C)co1)N(C)C [calyculin A]
hKCC3b
  hKCC3b-mediated K+-Cl- cotransport in the presence of putative inhibitors: blocked
